For test [1], the system named is OCI-AML2 cells. Nature of the test: Reactive oxygen species, Carboxy-H2DCFDA staining, OCI-AML2. It is filed as cell-based, human. As to conditions: increasing concentrations, flow cytometry. The method, then:
Data were analyzed with FlowJo version 8.8 (TreeStar, Ashland, Oreg.).
Background: In flow cytometry, cells or beads pass a laser one at a time.

Test [2] relates to OCI-AML2 cells. Nature of the test: Cell death, viability and cell cycle in OCI-AML2 cells. Format: cell-based, human. As to conditions: for effect of calcium chelation on IVM-induced cell death: chelation of intra and extracellular calcium. The method, then:
Cell growth and viability was assessed by the MTS assay (Promega, Madison, Wis.) according to the manufacturer's instructions and as previously described.^12 Cell death was measured by Annexin V-fluoroscein isothiocyanate (FITC) and Propidium Iodide (PI; Biovision Research Products, Mountain View, Calif.) staining and flow cytometry according to the manufacturer's instructions and as previously described.^13 To identify CD34+ cells, a normal PBSC sample was co-stained with PE-anti-CD34+ (Beckman Coulter, Marseille France), and APC-anti-CD45 (Becton Dickenson, San Jose Calif.).
Cell cycle analysis was performed as described previously.^15 Briefly, cells were harvested, washed with cold PBS, and resuspended in 80% cold ethanol. Cells were then treated with 100 ng/mL DNase-free RNase A (Invitrogen) at 37° C. for 30 min, washed with cold PBS, and resuspended in PBS with 50 μg/mL propidium iodide. DNA content was analyzed by flow cytometry (FACSCalibur; Becton Dickinson). The percentage of cells in each phase of the cell cycle was calculated with FlowJo version 8.8 (TreeStar, Ashland, Oreg.).

Test [3] has as its system STAT1 and target genes IFIT3, OAS1 and TRIM22 in OCI-AML2 cells. Nature of the test: Gene expression by Q-RT-PCR, OCI-AML2. Format: cell-based, human. As to conditions: pre-treatment with NAC. The method, then:
Leukemia cells were treated with buffer control or ivermectin (3 μM) for 30 and 40 hours. After treatment, cells were harvested, total RNA was isolated. Total RNA (10 μg) was used for cRNA amplification using the Invitrogen SuperScript kit (Life Technologies, Inc., Burlington, ON, Canada). Amplification and biotin labeling of antisense cRNA was performed using the Enzo® BioArray™ High Yield™ RNA transcript labeling kit (Enzo Diagnostics, Farmingdale, N.Y., USA), according to the manufacturer's instructions. RNA was then hybridized to Affymetrix HG U133 Plus 2.0 gene expression oligonucleotide arrays (Affymetrix, Santa Clara, Calif., USA). Microarray slides were scanned using the GeneArray 2500 scanner (Agilent Technologies). Microarray data were analyzed using GeneSpring GX v10.0 (Agilent), and lists of genes deregulated>2-fold after 30 and 40 hr ivermectin treatment were derived. Pathways and gene ontology analyses were carried out using Ingenuity Pathways Analysis (www.ingenuity.com); and the Database for Annotation, Visualization and Integrated Discovery (DAVID; http://david.abcc.ncifcrf.gov). […]
Gene expression changes were evaluated in OCI AML2, 0937, HL60, DU145 and PPC-1 cells by real-time Q-RT-PCRas described previously^15, 47. The expression level of STAT1A, STAT1B, TRIM22, OAS1 and IFIT3 before and after incubation of leukemia cells with ivermectin was evaluated.

The next test has as its system leukemia cells. The experiment in a line: Combination of IVM with albendazole, combination index. It is filed as cell-based.

Consider 7 molecules from patent US20120225123A1, “Use of Synergistic Combinations of an Avermectin and an Antineoplastic Compounds for the Treatment of Hematological Malignancies” (UNIVERSITY HEALTH NETWORK, priority 2009, published 2012).

Peptide text beside a SMILES is read from it. * marks the point of attachment. Cbz = O=C(OCc1ccccc1)*; CH2F = FC*

For the molecule `Nc1ccn([C@@H]2O[C@H](CO)[C@@H](O)[C@@H]2O)c(=O)n1` [cytarabine], the ROS production result in the test on OCI-AML2 cells [1] is “increase ROS production”.

As to `CC(=O)OCOC(=O)CN(CC(=O)OCOC(C)=O)c1ccccc1OCCOc1ccccc1N(CC(=O)OCOC(C)=O)CC(=O)OCOC(C)=O` [BAPTA-AM], in the test with OCI-AML2 cells [2], the “effect of calcium chelation on IVM-induced cell death” value is given as “did not inhibit IVM-induced cell death”.

For `COc1cccc2c1C(=O)c1c(O)c3c(c(O)c1C2=O)C[C@@](O)(C(C)=O)C[C@@H]3O[C@H]1C[C@H](N)[C@H](O)[C@H](C)O1` [daunorubicin], the ROS production result in the test on OCI-AML2 cells [1] is “increase ROS production”.

For the molecule `COC(=O)C[C@H](NC(=O)[C@H](C)NC(=O)[C@@H](NC(=O)OCc1ccccc1)C(C)C)C(=O)CF` [z-VAD-fmk] (Cbz-Val-Ala-Asp(OMe)-CH2F), the “effect of pan-caspase inhibitor co-treatment on ivermectin-induced cell death” value with OCI-AML2 cells [2] (co-treatment with ivermectin, 24 hours, Annexin V-PI) is reported as “abrogated cell death”.

In the case of `CC(=O)N[C@@H](CS)C(=O)O` [NAC, N-acetyl-L-Cysteine], in test [3], the “effect of NAC pre-treatment on ivermectin upregulation of STAT1 genes” value was “blocked their upregulation”. The “effect of free radical scavenger on IVM-induced cell death” value in the test with OCI-AML2 cells [2] (treated with IVM along with NAC) is “abrogated IVM-induced cell death”.

As to `CCCSc1ccc2nc(NC(=O)OC)[nH]c2c1` [albendazole], in the test on leukemia cells, the “CI value at the ED25” value is on record as 1.59, the “CI value at the ED75” value was 0.89 and the “drug interaction with IVM” value is given as “antagonized the anti-leukemic effects of IVM”.

Take `O=C(O)CN(CCN(CC(=O)O)CC(=O)O)CC(=O)O` [EDTA]: in the test on OCI-AML2 cells [2], the “effect of calcium chelation on IVM-induced cell death” value is “did not inhibit IVM-induced cell death”.
